From US6919425B2, “Isolation of a cell-specific internalizing peptide that infiltrates tumor tissue for targeted drug delivery” (Board of Regents, The University of Texas System, priority 2000, dated 2005)
“Also recorded” adds a separate entry of the source. Starred links: 1 amine or outer side, 2 acyl side, 3 side chain; linkers in the order of their positions; H or OH if unused. Positions of bridges follow the written chain, without caps; N, C: chain ends. Non-standard residues stand in square brackets, D forms with d. Residues, ends and D or L forms follow the SMILES beside them. Chains are numbered I, II in the order given. Actinocin(9to1) = Cc1c2oc3c(C)ccc(C(=O)[*:1])c3nc-2c(C(=O)[*:2])c(N)c1=O; NMeV = CN[C@H](C(=O)O)C(C)C; Sar = CNCC(=O)O

Assays:
[1] = cited from earlier work
[2] = Toxicity, immunogenicity and stability in HN-1 injected mice; type: in vivo
[3] = mouse, in vivo; cited from earlier work

Cc1c2oc3c(C)ccc(C(=O)N[C@@H]4C(=O)N[C@H](C(C)C)C(=O)N5CCC[C@H]5C(=O)N(C)CC(=O)N(C)[C@@H](C(C)C)C(=O)O[C@@H]4C)c3nc-2c(C(=O)N[C@@H]2C(=O)N[C@H](C(C)C)C(=O)N3CCC[C@H]3C(=O)N(C)CC(=O)N(C)[C@@H](C(C)C)C(=O)O[C@@H]2C)c(N)c1=O [Actinomycin D] (I: T[dV]P[Sar][NMeV] / II: T[dV]P[Sar][NMeV]; ester I:1-I:C, II:1-II:C; linker I:N-II:N via Actinocin(9to1))
dose excreted / detected intact in the urine ([1]; in vivo): 10%

CC[C@H](C)[C@H](NC(=O)[C@H](CC(N)=O)NC(=O)[C@H](CC(C)C)NC(=O)[C@@H]1CCCN1C(=O)[C@H](CO)NC(=O)[C@@H](N)[C@@H](C)O)C(=O)N[C@@H](Cc1c[nH]cn1)C(=O)N[C@@H](CC(N)=O)C(=O)NCC(=O)N[C@@H](CCC(N)=O)C(=O)N[C@@H](CCCCN)C(=O)N[C@@H](CC(C)C)C(N)=O [HN-1] (H-TSPLNIHNGQKL-NH2; N-terminus and C-terminus assumed)
toxicity ([2]; histology of organs of injected mice): no histological evidence of organotoxicity; also recorded: nontoxic | immunogenicity ([2]; mouse, in vivo): nonimmunogenic | protection of cargo during transit ([2]; mouse, in vivo): protects its “cargo” during transit; also recorded: protects its cargo during transit | stability in vivo ([2]; shown by detecting intact peptide in blood 24 h after injection): stable in vivo

O=NN(CCCl)C(=O)NC1CCCCC1 [Lomustine, 1-(2-chloro-ethyl)-3-cyclohexyl-1nitrosourea]
tissue levels relative to plasma levels ([1]; in vivo, iv): comparable

CC[C@]1(O)C[C@@H]2CN(CCc3c([nH]c4ccccc34)[C@@](C(=O)OC)(c3cc4c(cc3OC)N(C)[C@H]3[C@@](O)(C(=O)OC)[C@H](OC(C)=O)[C@]5(CC)C=CCN6CC[C@]43[C@@H]65)C2)C1 [Vinblastine]
dose excreted / detected intact in the urine ([1]; in vivo): Approximately 15% | half-life of disappearance from plasma after distribution (first of two) ([1]; intravenous injection): approximately 1 hours | half-life of disappearance from plasma after distribution (second of two) ([1]; intravenous injection): ~20 h

CC[C@]1(O)C[C@H]2CN(CCc3c([nH]c4ccccc34)[C@@](C(=O)OC)(c3cc4c(cc3OC)N(C=O)[C@H]3[C@@](O)(C(=O)OC)[C@H](OC(C)=O)[C@]5(CC)C=CCN6CC[C@]43[C@@H]65)C2)C1 [Vincristine]
terminal half-life of clearance from the plasma ([1]; multiphasic): about 24 hours

O=C1OC2(c3ccc(O)cc3Oc3cc(O)ccc32)c2ccccc21 [fluorescein]
permeability of the dyes themselves (MDA177Tu cells): impermeable

Bleomycin
concentrations in hematopoietic tissue / bone marrow [3]: low concentrations | concentrations in skin, lungs, kidneys, peritoneum and lymphatics [3]: high concentrations
